In patent US10093973B2, “Polymerase compositions and methods” (LIFE TECHNOLOGIES CORPORATION, priority 2009, dated 2018):

Columns and labels:
Format in all cases: biochemical
[1] = system: hairpin-template, test nanoparticle; test: Nanoparticle tolerance assay (primer extension with and without test nanoparticle); conditions: 100 nM polymerase, 100 nM nanoparticle, 23° C.
Protocol: The nanoparticle tolerance of exemplary modified and reference polymerases was measured and compared. The nucleotide incorporation activity of an exemplary modified polymerase comprising the amino acid sequence of SEQ ID NO: 19 and further comprising the amino acid substitution D175A was measured both in the absence and presence of equimolar amounts of a test nanoparticle. The results were compared to those of an exemplary reference Phi-29 polymerase comprising the amino acid sequence of SEQ ID NO: 20.
Primer extension activity was measured using an assay wherein free pyrophosphate released as a result of extension of a primer:template duplex is detected as a fluorescent product. […] The resulting fluorescence emissions were monitored as a function of time using a plate reader (Molecular Devices, SpectraMax M5). Reactions without nucleotides were also monitored as negative controls. Reactions were monitored for 20 minutes or until the samples reached saturation.
Exemplary results are depicted in FIG. 5, which provides a graph of relative fluorescence observed in each sample (RFU, arbitrary units, Y axis) against time (seconds, X axis). […] Primer extension activity was measured as the average slope of the curve obtained by plotting fluorescence (RFU) vs. time (seconds, X axis) between the zero time point and at 5 minutes. […]

[2] = system: Invitrogen Low Mass ladder; test: Exonuclease activity assay; conditions: 2, 4 or 10 μg enzyme, 16 hours at 37° C., visual assessment of ladder bands
Protocol: An assay comparing the endogenous exonuclease activity of a reference polymerase, T7 DNA polymerase, with the exonuclease activity of a polymerase comprising the amino acid of SEQ ID NO: 7, was performed. Exonuclease activity was measured by incubating 2, 4 or 10 μg of each enzyme sample with 7.5 μL Invitrogen Low Mass ladder, (10068-013) in a 50 μL reaction containing 10 mM Tris, pH 7.5, 50 mM NaCl and 10 mM MgCl2 for 16 hours at 37° C. in an ABI 9700 PCR machine. The samples were resolved via electrophoresis on a 1.2% E-Gel (Life Technologies). The extent of exonuclease activity was estimated by visually assessing the disappearance of the bands of the Low Mass ladder, as compared to negative control reactions, to which water (“W”) or enzyme storage buffer (“SB”) was added instead of purified polymerase).

[3] = system: AF647-C6-dG6P in [enzyme.DNA.nucleotide] ternary complex with dideoxy-primer/template duplex; test: Stopped-flow measurement of t−1 (nucleotide dissociation from ternary complex); parameters: unit not given here; conditions: t−1 = 1/k−1; ternary complex with 7 μM AF647-C6-dG6P chased with 50 μM non-labeled nucleotide, 2 mM MnCl2
Protocol: Stopped-Flow Measurements of t−1
The stopped-flow techniques for measuring t−1 ([…]) followed the techniques described by M. Bakhtina (2009 Biochemistry 48:3197-3208).
The rate of the nucleotide dissociation ([…]) from the ternary complex of [enzyme.DNA.nucleotide] was measured in an Applied Photophysics SX20 stopped-flow spectrometer by monitoring changes […] a duplex Alexa fluor 546 dye-labeled-DNA template following the mixing of the [enzyme.DNA.labeled nucleotide] ternary complex with 50 μM cognate non-labeled deoxynucleoside triphosphate in a buffer containing 50 mM Tris-HCl (pH 7.5), 50 mM NaCl, 4 mM DTT, 0.2% BSA, and 2 mM MnCl2.
The ternary complexes were prepared using: 330 nM polymerase, 100 nM template/primer duplex, and 7 μM terminal phosphate-labeled nucleotides (AF647-C6-dG6P).
The averaged stopped-flow fluorescence traces (>1.5 msec) were fitted with a single exponential equation (2) to extrapolate the rate of the nucleotide dissociation (k−1) from the [enzyme.DNA.nucleotide] ternary complex. Fluorescence=A1*e^−k−1*t+C (equation 2) where A1 represents the corresponding fluorescence amplitude, C is an offset constant, and k−1 and the observed rate constants for the fluorescence transition.

[4] = system: AF647-C6-dG6P and Alexa Fluor 546 dye-labeled primer-template duplex; test: Stopped-flow measurement of tpol (nucleotide incorporation kinetics); parameters: unit not given here; conditions: tpol = 1/kpol; 7 μM AF647-C6-dG6P, 330 nM polymerase, 100 nM template/primer duplex, 2 mM MnCl2
Protocol: In this example, the t−1 and tpol values of a Phi-29 polymerase comprising the amino acid sequence of SEQ ID NO: 1 and a modified B103 polymerase comprising the amino acid sequence of SEQ ID NO: 8 (referred to as “mB103 in the table below) and further including amino acid substitutions at various positions were measured using a stopped-flow procedure. The stopped-flow techniques for measuring tpol (1/kpol) followed the techniques described by MP Roettger (2008 Biochemistry 47:9718-9727; M. Bakhtina 2009 Biochemistry 48:3197-320).
Stopped-Flow Measurements of tpol
The template sequence (SEQ ID NO: 44) further included an Alexa Fluor 546 dye moiety bonded to the 5′ position of the template.
The kinetics of nucleotide incorporation by each polymerase was measured in an Applied Photophysics SX20 stopped-flow spectrometer by monitoring changes in fluorescence from the dye-labeled primer-template duplex complexed to enzyme, following the mixing of the enzyme-DNA complex with dye-labeled nucleotides. These dye-labeled nucleotides comprise terminal-phosphate-labeled nucleotides having an alkyl linker with a functional amine group attached to the dye, and have the general structure shown in FIG. 11. This structure includes a sugar bonded to a hexaphosphate chain at the 5′ carbon position, and to a nucleotide base (denoted as “N”). The terminal phosphate group of the hexaphosphate is linked to a 6-carbon linker, and the other end of the 6-carbon linker is attached to a dye moiety (denoted as “dye”), typically through an amide bond. In this example, the particular dye-labeled nucleotide added was a labeled nucleotide hexaphosphate comprising a guanine base at the N (base) position and an Alexa Fluor 647 (AF647) at the dye position, and is referred to herein as “AF647-C6-dG6P”.
The primer and template were annealed to form a dye-labeled primer-template duplex using standard methods. This duplex was preincubated with polymerase. The mixture included 330 nM recombinant DNA polymerase, 100 nM template/primer duplex in buffer (“reaction buffer”) comprising 50 mM Tris-HCl, pH 7.5, 50 mM NaCl, 4 mM DTT, 0.2% BSA, and 2 mM MnCl2. The dye-labeled nucleotide AF647-C6-dG6P was then added to a final concentration of 7 μM, and the resulting fluorescence was monitored over time.
The averaged (5 traces) stopped-flow fluorescence traces (>1.5 ms) were fitted with a double exponential equation (1) to extrapolate the rates of the nucleotide binding and product release, Fluorescence=A1*e^−k1*t+A2*e^−kpol*t+C (equation 1) where A1 and A2 represent corresponding fluorescence amplitudes, C is an offset constant, and k1 and kpol are the observed rate constants for the fast and slow phases of the fluorescence transition, respectively.

[5] = system: ωdN4P and non-extendible AF546 primer:template duplex; test: Stopped-flow t−1 measurement of Example 7; conditions: modified versus reference polymerase, ωdN4P 14 μM
Protocol: In this example, the t−1 values of an exemplary modified polymerase comprising the amino acid of SEQ ID NO: 8 and an exemplary reference polymerase comprising the amino acid sequence of SEQ ID NO: 20 were measured and compared. These kinetic parameters were evaluated using an assay system wherein mixtures comprising a test polymerase and a primer:template duplex were mixed in a stopped-flow assay with nucleotides. To measure t−1, the primer used to form the primer:template duplex was a non-extendible primer including a dideoxynucleotide at its 3′ end, and the template was a synthetic DNA template comprising a donor Alexa Fluor 546 moiety at its 5′ end. […] The ternary complex was mixed with unlabeled nucleotides in a stopped-flow experiment, and the resulting fluorescence was monitored as described below. […]
Preincubated mixtures comprising 200 nM of a primer:templex duplex, 660 nM of test polymerase, and 14 μM of ωdN4P were prepared and then mixed with a solution comprising the unlabeled cognate nucleotide (50 μM) in a stopped-flow apparatus. The fluorescence at both 546 nm and 647 nm was monitored following mixing. The averaged stopped-flow fluorescence traces were fitted with a single exponential function having the form of Equation (1) to extrapolate the t−1 value of the test polymerase.

[6] = system: ωdN4P and extendible AF546 primer:template duplex; test: Stopped-flow tpol measurement of Example 8; conditions: modified versus reference polymerase, ωdN4P 14 μM
Protocol: In this example, the tpol values of an exemplary modified polymerase comprising the amino acid of SEQ ID NO: 8 and was measured and compared to the tpol value of an exemplary reference polymerase comprising the amino acid sequence of SEQ ID NO: 20. These kinetic parameters were evaluated using a stopped-flow assay wherein a mixture comprising an extendible dye-labeled primer:template duplex and test polymerase was mixed with a solution comprising terminally-labeled nucleotide tetraphosphates or terminally-labeled nucleotide hexaphosphates. These terminally-labeled nucleotides comprise terminal-phosphate-labeled nucleotides having an alkyl linker with a functional amine group attached to the dye. The fluorescence of the resulting mixture was monitored over time. Unless noted otherwise, all concentrations refer to the initial concentrations prior to mixing. […]
Each primer-template duplex (200 nM) was preincubated with test polymerase (660 nM) and to form an E.DNA binary complex. This binary complex was mixed with the cognate omega-labeled nucleoside tetraphosphate (ωdN4P; 14 μM) in a stopped-flow experiment, and the fluorescence at both 546 nm and 647 nm was monitored following mixing. The averaged stopped-flow fluorescence traces were fitted with the double exponential function of Equation (2) to extrapolate the tpol value of the test polymerase: […]

Substance	t−1 [3]	tpol [4]	also measured
reference Phi-29 polymerase: reference Phi-29 polymerase of Example 5; SEQ ID NO: 20 or SEQ ID NO: 1 with N62D [reference compound]			nanoparticle tolerance [1]: 50%; loss in primer extension activity in the presence of equimolar amounts of the test nanoparticle ([1]; slope zero to 5 minutes): 50%
T7 DNA polymerase: reference polymerase, positive control for exonuclease activity [reference compound]			exonuclease activity [2]: comparable levels of exonuclease activity
mB103 + K509Y: modified B103 polymerase of SEQ ID NO: 8 with substitution K509Y	20	10	
mB103 + E371Y: modified B103 polymerase of SEQ ID NO: 8 with substitution E371Y	7	11	
SEQ ID NO: 7: B103 polymerase variant with substitutions F383L and D384N			exonuclease activity [2]: comparable levels of exonuclease activity
mB103 + D507G: modified B103 polymerase of SEQ ID NO: 8 with substitution D507G	13	11	
mB103 + H370Y: modified B103 polymerase of SEQ ID NO: 8 with substitution H370Y	12	15	
mB103 + D507H: modified B103 polymerase of SEQ ID NO: 8 with substitution D507H	16	7	
mB103 + E371R: modified B103 polymerase of SEQ ID NO: 8 with substitution E371R	17	11	
mB103 + H370R: modified B103 polymerase of SEQ ID NO: 8 with substitution H370R	43	17	
SEQ ID NO: 1: exemplary polymerase of the bacteriophage Phi-29 [reference compound]			estimated t−1 values [5]: comparable; estimated tpol values [6]: comparable
